# System: not listed separately
# Experiment: (§1) Cytotoxicity against human PBMC cells
# Assay type: cell-based
# Conditions: PBMC cells
row,SMILES,CC50 [µM]
1,O=C(O)[C@H]1C2C=CC(CC2)[C@@H]1Nc1nc(-c2c[nH]c3ncc(F)cc23)ncc1F (some centres not stated),> 100

# System: PBMC
# Experiment: as §1
# Assay type: cell-based
# Conditions: pbmc
row,SMILES,CC50 [µM]
1,O=C(O)[C@H]1C2CCC(C3CC32)[C@@H]1Nc1nc(-c2c[nH]c3ncc(F)cc23)ncc1F (some centres not stated),> 100
2,O=C(O)[C@H]1C2C=CC(CC2)[C@@H]1c1nnc2c(F)cnc(-c3c[nH]c4ncc(F)cc34)n12 (some centres not stated),≥ 100
3,O=C(O)[C@H]1C2C=CC(CC2)[C@@H]1Nc1nc(-c2n[nH]c3ncc(F)cc23)nc2sccc12 (some centres not stated),> 100
4,O=C(O)C12CC3CC(CC(Nc4nc(-c5c[nH]c6ncc(F)cc56)ncc4F)(C3)C1)C2,23.1
5,O=C(O)[C@H]1C2CCC(CC2)[C@@H]1Nc1nc(-c2c[nH]c3ncc(F)cc23)ncc1F [PIMODIVIR],> 100
6,O=C(O)[C@H]1C2C=CC(C2)[C@@H]1Nc1nc(-c2c[nH]c3ncc(F)cc23)ncc1F (some centres not stated),> 100
7,O=C(O)[C@H]1C2C=CC(CC2)[C@@H]1Nc1nc(-c2n[nH]c3ncc(F)cc23)nc2ccsc12 (some centres not stated),> 100
8,O=C(O)[C@H]1C2C=CC(CC2)[C@@H]1Nc1nc2cnc(-c3c[nH]c4ncc(F)cc34)nc2s1 (some centres not stated),84.8
9,O=C(O)[C@H]1C2C=CC(CC2)[C@@H]1Nc1nc(-c2c[nH]c3ncc(F)cc23)nc2ccsc12 (some centres not stated),64.6
10,O=C(O)[C@H]1C2C=CC(CC2)[C@@H]1Nc1nc(-c2n[nH]c3ncc(F)cc23)ncc1F (some centres not stated),> 100
11,O=C(O)[C@H]1C2C=CC(CC2)[C@@H]1Nc1cc2nncn2c(-c2c[nH]c3ncc(F)cc23)n1 (some centres not stated),> 100
12,Cc1csc2c(N[C@H]3C4C=CC(CC4)[C@@H]3C(=O)O)nc(-c3c[nH]c4ncc(F)cc34)nc12 (some centres not stated),> 100
13,Cn1cnc2c(N[C@H]3C4C=CC(CC4)[C@@H]3C(=O)O)nc(-c3c[nH]c4ncc(F)cc34)nc21 (some centres not stated),> 100
14,Cn1cnc2nc(-c3c[nH]c4ncc(F)cc34)nc(N[C@H]3C4C=CC(CC4)[C@@H]3C(=O)O)c21 (some centres not stated),> 100
15,O=C(O)[C@H]1C2C=CC(CC2)[C@@H]1Nc1nc(-c2c[nH]c3ncc(F)cc23)nc2sccc12 (some centres not stated),9.3
16,Cc1cc2nc(-c3c[nH]c4ncc(F)cc34)nc(N[C@H]3C4C=CC(CC4)[C@@H]3C(=O)O)c2s1 (some centres not stated),78.4

# System: CCRF-CEM
# Experiment: Cytotoxicity against human CEM cells
# Assay type: cell-based
# Conditions: not given
row,SMILES,CC50 [µM]
1,O=C(O)[C@H]1C2CCC(C3CC32)[C@@H]1Nc1nc(-c2c[nH]c3ncc(F)cc23)ncc1F (some centres not stated),62.9
2,O=C(O)[C@H]1C2C=CC(CC2)[C@@H]1Nc1nc(-c2c[nH]c3ncc(F)cc23)ncc1F (some centres not stated),91.1
3,O=C(O)[C@H]1C2C=CC(CC2)[C@@H]1c1nnc2c(F)cnc(-c3c[nH]c4ncc(F)cc34)n12 (some centres not stated),41.7
4,O=C(O)[C@H]1C2C=CC(CC2)[C@@H]1Nc1nc(-c2n[nH]c3ncc(F)cc23)nc2sccc12 (some centres not stated),13.7
5,O=C(O)C12CC3CC(CC(Nc4nc(-c5c[nH]c6ncc(F)cc56)ncc4F)(C3)C1)C2,10.1
6,O=C(O)[C@H]1C2CCC(CC2)[C@@H]1Nc1nc(-c2c[nH]c3ncc(F)cc23)ncc1F [PIMODIVIR],48.9
7,O=C(O)[C@H]1C2C=CC(C2)[C@@H]1Nc1nc(-c2c[nH]c3ncc(F)cc23)ncc1F (some centres not stated),> 100
8,O=C(O)[C@H]1C2C=CC(CC2)[C@@H]1Nc1nc(-c2n[nH]c3ncc(F)cc23)nc2ccsc12 (some centres not stated),67
9,O=C(O)[C@H]1C2C=CC(CC2)[C@@H]1Nc1nc2cnc(-c3c[nH]c4ncc(F)cc34)nc2s1 (some centres not stated),17.3
10,O=C(O)[C@H]1C2C=CC(CC2)[C@@H]1Nc1nc(-c2c[nH]c3ncc(F)cc23)nc2ccsc12 (some centres not stated),31.6
11,O=C(O)[C@H]1C2C=CC(CC2)[C@@H]1Nc1nc(-c2n[nH]c3ncc(F)cc23)ncc1F (some centres not stated),48.9
12,O=C(O)[C@H]1C2C=CC(CC2)[C@@H]1Nc1cc2nncn2c(-c2c[nH]c3ncc(F)cc23)n1 (some centres not stated),30.8
13,Cc1csc2c(N[C@H]3C4C=CC(CC4)[C@@H]3C(=O)O)nc(-c3c[nH]c4ncc(F)cc34)nc12 (some centres not stated),> 100
14,Cn1cnc2c(N[C@H]3C4C=CC(CC4)[C@@H]3C(=O)O)nc(-c3c[nH]c4ncc(F)cc34)nc21 (some centres not stated),29.1
15,Cn1cnc2nc(-c3c[nH]c4ncc(F)cc34)nc(N[C@H]3C4C=CC(CC4)[C@@H]3C(=O)O)c21 (some centres not stated),> 100
16,O=C(O)[C@H]1C2C=CC(CC2)[C@@H]1Nc1nc(-c2c[nH]c3ncc(F)cc23)nc2sccc12 (some centres not stated),4.2
17,Cc1cc2nc(-c3c[nH]c4ncc(F)cc34)nc(N[C@H]3C4C=CC(CC4)[C@@H]3C(=O)O)c2s1 (some centres not stated),12.9

# System: A549
# Experiment: Cytotoxicity against human A549 cells
# Assay type: cell-based
# Conditions: not given
row,SMILES,CC50 [µM]
1,O=C(O)[C@H]1C2CCC(C3CC32)[C@@H]1Nc1nc(-c2c[nH]c3ncc(F)cc23)ncc1F (some centres not stated),94.6
2,O=C(O)[C@H]1C2C=CC(CC2)[C@@H]1c1nnc2c(F)cnc(-c3c[nH]c4ncc(F)cc34)n12 (some centres not stated),65.4
3,O=C(O)[C@H]1C2C=CC(CC2)[C@@H]1Nc1nc(-c2n[nH]c3ncc(F)cc23)nc2sccc12 (some centres not stated),> 100
4,O=C(O)C12CC3CC(CC(Nc4nc(-c5c[nH]c6ncc(F)cc56)ncc4F)(C3)C1)C2,16.2
5,O=C(O)[C@H]1C2CCC(CC2)[C@@H]1Nc1nc(-c2c[nH]c3ncc(F)cc23)ncc1F [PIMODIVIR],20
6,O=C(O)[C@H]1C2C=CC(C2)[C@@H]1Nc1nc(-c2c[nH]c3ncc(F)cc23)ncc1F (some centres not stated),> 100
7,O=C(O)[C@H]1C2C=CC(CC2)[C@@H]1Nc1nc(-c2n[nH]c3ncc(F)cc23)nc2ccsc12 (some centres not stated),32.5
8,O=C(O)[C@H]1C2C=CC(CC2)[C@@H]1Nc1nc2cnc(-c3c[nH]c4ncc(F)cc34)nc2s1 (some centres not stated),31.3
9,O=C(O)[C@H]1C2C=CC(CC2)[C@@H]1Nc1nc(-c2c[nH]c3ncc(F)cc23)nc2ccsc12 (some centres not stated),14.7
10,O=C(O)[C@H]1C2C=CC(CC2)[C@@H]1Nc1nc(-c2n[nH]c3ncc(F)cc23)ncc1F (some centres not stated),30.6
11,O=C(O)[C@H]1C2C=CC(CC2)[C@@H]1Nc1cc2nncn2c(-c2c[nH]c3ncc(F)cc23)n1 (some centres not stated),51.9
12,Cc1csc2c(N[C@H]3C4C=CC(CC4)[C@@H]3C(=O)O)nc(-c3c[nH]c4ncc(F)cc34)nc12 (some centres not stated),> 100
13,Cn1cnc2c(N[C@H]3C4C=CC(CC4)[C@@H]3C(=O)O)nc(-c3c[nH]c4ncc(F)cc34)nc21 (some centres not stated),≥ 100
14,Cn1cnc2nc(-c3c[nH]c4ncc(F)cc34)nc(N[C@H]3C4C=CC(CC4)[C@@H]3C(=O)O)c21 (some centres not stated),> 100
15,O=C(O)[C@H]1C2C=CC(CC2)[C@@H]1Nc1nc(-c2c[nH]c3ncc(F)cc23)nc2sccc12 (some centres not stated),14.5
16,Cc1cc2nc(-c3c[nH]c4ncc(F)cc34)nc(N[C@H]3C4C=CC(CC4)[C@@H]3C(=O)O)c2s1 (some centres not stated),41.7

# System: Huh-7
# Experiment: Cytotoxicity against human HuH7 cells
# Assay type: cell-based
# Conditions: not given
row,SMILES,CC50 [µM]
1,O=C(O)[C@H]1C2C=CC(CC2)[C@@H]1c1nnc2c(F)cnc(-c3c[nH]c4ncc(F)cc34)n12 (some centres not stated),≥ 100
2,O=C(O)[C@H]1C2C=CC(CC2)[C@@H]1Nc1nc(-c2n[nH]c3ncc(F)cc23)nc2sccc12 (some centres not stated),62.7
3,O=C(O)C12CC3CC(CC(Nc4nc(-c5c[nH]c6ncc(F)cc56)ncc4F)(C3)C1)C2,14.3
4,O=C(O)[C@H]1C2CCC(CC2)[C@@H]1Nc1nc(-c2c[nH]c3ncc(F)cc23)ncc1F [PIMODIVIR],95.8
5,O=C(O)[C@H]1C2C=CC(C2)[C@@H]1Nc1nc(-c2c[nH]c3ncc(F)cc23)ncc1F (some centres not stated),> 100
6,O=C(O)[C@H]1C2C=CC(CC2)[C@@H]1Nc1nc(-c2n[nH]c3ncc(F)cc23)nc2ccsc12 (some centres not stated),70.7
7,O=C(O)[C@H]1C2C=CC(CC2)[C@@H]1Nc1nc2cnc(-c3c[nH]c4ncc(F)cc34)nc2s1 (some centres not stated),70.2
8,O=C(O)[C@H]1C2C=CC(CC2)[C@@H]1Nc1nc(-c2c[nH]c3ncc(F)cc23)nc2ccsc12 (some centres not stated),68.7
9,O=C(O)[C@H]1C2C=CC(CC2)[C@@H]1Nc1nc(-c2n[nH]c3ncc(F)cc23)ncc1F (some centres not stated),83
10,O=C(O)[C@H]1C2C=CC(CC2)[C@@H]1Nc1cc2nncn2c(-c2c[nH]c3ncc(F)cc23)n1 (some centres not stated),71
11,Cc1csc2c(N[C@H]3C4C=CC(CC4)[C@@H]3C(=O)O)nc(-c3c[nH]c4ncc(F)cc34)nc12 (some centres not stated),> 100
12,Cn1cnc2c(N[C@H]3C4C=CC(CC4)[C@@H]3C(=O)O)nc(-c3c[nH]c4ncc(F)cc34)nc21 (some centres not stated),> 100
13,Cn1cnc2nc(-c3c[nH]c4ncc(F)cc34)nc(N[C@H]3C4C=CC(CC4)[C@@H]3C(=O)O)c21 (some centres not stated),> 100
14,O=C(O)[C@H]1C2C=CC(CC2)[C@@H]1Nc1nc(-c2c[nH]c3ncc(F)cc23)nc2sccc12 (some centres not stated),24
15,Cc1cc2nc(-c3c[nH]c4ncc(F)cc34)nc(N[C@H]3C4C=CC(CC4)[C@@H]3C(=O)O)c2s1 (some centres not stated),31.2

# System: Vero
# Experiment: Cytotoxicity against African green monkey Vero cells
# Assay type: cell-based
# Conditions: chlorocebus sabaeus
row,SMILES,CC50 [µM]
1,O=C(O)[C@H]1C2CCC(C3CC32)[C@@H]1Nc1nc(-c2c[nH]c3ncc(F)cc23)ncc1F (some centres not stated),> 100
2,O=C(O)[C@H]1C2C=CC(CC2)[C@@H]1Nc1nc(-c2c[nH]c3ncc(F)cc23)ncc1F (some centres not stated),> 100
3,O=C(O)[C@H]1C2C=CC(CC2)[C@@H]1c1nnc2c(F)cnc(-c3c[nH]c4ncc(F)cc34)n12 (some centres not stated),≥ 100
4,O=C(O)[C@H]1C2C=CC(CC2)[C@@H]1Nc1nc(-c2n[nH]c3ncc(F)cc23)nc2sccc12 (some centres not stated),> 100
5,O=C(O)C12CC3CC(CC(Nc4nc(-c5c[nH]c6ncc(F)cc56)ncc4F)(C3)C1)C2,30.3
6,O=C(O)[C@H]1C2CCC(CC2)[C@@H]1Nc1nc(-c2c[nH]c3ncc(F)cc23)ncc1F [PIMODIVIR],> 100
7,O=C(O)[C@H]1C2C=CC(C2)[C@@H]1Nc1nc(-c2c[nH]c3ncc(F)cc23)ncc1F (some centres not stated),> 100
8,O=C(O)[C@H]1C2C=CC(CC2)[C@@H]1Nc1nc(-c2n[nH]c3ncc(F)cc23)nc2ccsc12 (some centres not stated),52.5
9,O=C(O)[C@H]1C2C=CC(CC2)[C@@H]1Nc1nc2cnc(-c3c[nH]c4ncc(F)cc34)nc2s1 (some centres not stated),86.1
10,O=C(O)[C@H]1C2C=CC(CC2)[C@@H]1Nc1nc(-c2c[nH]c3ncc(F)cc23)nc2ccsc12 (some centres not stated),74.9
11,O=C(O)[C@H]1C2C=CC(CC2)[C@@H]1Nc1nc(-c2n[nH]c3ncc(F)cc23)ncc1F (some centres not stated),> 100
12,O=C(O)[C@H]1C2C=CC(CC2)[C@@H]1Nc1cc2nncn2c(-c2c[nH]c3ncc(F)cc23)n1 (some centres not stated),> 100
13,Cc1csc2c(N[C@H]3C4C=CC(CC4)[C@@H]3C(=O)O)nc(-c3c[nH]c4ncc(F)cc34)nc12 (some centres not stated),> 100
14,Cn1cnc2c(N[C@H]3C4C=CC(CC4)[C@@H]3C(=O)O)nc(-c3c[nH]c4ncc(F)cc34)nc21 (some centres not stated),> 100
15,Cn1cnc2nc(-c3c[nH]c4ncc(F)cc34)nc(N[C@H]3C4C=CC(CC4)[C@@H]3C(=O)O)c21 (some centres not stated),> 100
16,O=C(O)[C@H]1C2C=CC(CC2)[C@@H]1Nc1nc(-c2c[nH]c3ncc(F)cc23)nc2sccc12 (some centres not stated),65.9
17,Cc1cc2nc(-c3c[nH]c4ncc(F)cc34)nc(N[C@H]3C4C=CC(CC4)[C@@H]3C(=O)O)c2s1 (some centres not stated),90.3

# Source: ChEMBL document CHEMBL4396965
